Laboratory results published in ChEMBL document CHEMBL1201862, “PubChem BioAssay data set” (2004).
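Protocol summary: plate cells (96-well), add compound at 5 concentrations, incubate 48 h, interpolate endpoints linearly. The concentration for 50% growth inhibition is given as GI50.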 Active and inactive are the calls of the source. Rule as the data show it: active = GI50 up to about 1.1 µM and inactive = higher. Where a SMILES comes first, the peptide text is derived from it. [ ]: non-standard residue; d: D form. The star is where a group is joined. NMeF = CN[C@@H](Cc1ccccc1)C(=O)O; NMeV = CN[C@H](C(=O)O)C(C)C; Boc = CC(C)(C)OC(=O)*; OBn = c1ccc(CO*)cc1

Columns and labels:
Assay in all cases: DTP human tumour cell line panel, 48 h
SF-295 = test system: SF-295
MDA-MB-435 = test system: MDA-MB-435
SN12C = test system: SN12C
UACC-62 = test system: UACC-62
BT-549 = test system: BT-549
T47D = test system: T47D
K562 = test system: K562
HCT-15 = test system: HCT-15
NCI/ADR-RES = test system: NCI/ADR-RES
NCI-H23 = test system: NCI-H23
786-0 = test system: 786-0
Hs-578T = test system: Hs-578T
CAKI-1 = test system: CAKI-1
OVCAR-8 = test system: OVCAR-8
CCRF-CEM = test system: CCRF-CEM
SK-MEL-5 = test system: SK-MEL-5
SF-268 = test system: SF-268
KM12 = test system: KM12
LOX IMVI = test system: LOX IMVI

Row | Compound | GI50 (SF-295) | GI50 (MDA-MB-435) | GI50 (SN12C) | GI50 (UACC-62) | GI50 (BT-549) | GI50 (T47D) | GI50 (K562) | GI50 (HCT-15) [µM] | GI50 (NCI/ADR-RES) | GI50 (NCI-H23) | GI50 (786-0) | GI50 (Hs-578T) | GI50 (CAKI-1) | GI50 (OVCAR-8) | GI50 (CCRF-CEM) | GI50 (SK-MEL-5) | GI50 (SF-268) | GI50 (KM12) | GI50 (LOX IMVI)
1 | CC(=O)N1N=C(c2c(O)ccc3ccccc23)CC1c1ccc(Cl)cc1 (stereo not given) | 19.9 µM (inactive) | 22.4 µM (inactive) | 18.7 µM (inactive) | 14.1 µM (inactive) | 21 µM (inactive) | 37.5 µM (inactive) | 13.1 µM (inactive) | 28.4 | 14.5 µM (inactive) | 15.1 µM (inactive) | 27.1 µM (inactive) | 17.1 µM (inactive) | 32.9 µM (inactive) | 26.9 µM (inactive) | 3.8 µM (inactive) | 21 µM (inactive) | 26.3 µM (inactive) | 13.7 µM (inactive) | –
2 | COc1ccc(C(=C2C(=O)OC(=O)C2=C(C)C)c2ccc(OC)cc2)cc1 | 73.5 µM (inactive) | > 100 µM (inactive) | > 100 µM (inactive) | > 100 µM (inactive) | 70.5 µM (inactive) | > 100 µM (inactive) | – | 51.9 | 39.5 µM (inactive) | > 100 µM (inactive) | > 100 µM (inactive) | 95.5 µM (inactive) | > 100 µM (inactive) | 47.4 µM (inactive) | – | > 100 µM (inactive) | > 100 µM (inactive) | 29.2 µM (inactive) | 34.4 µM (inactive)
3 | CC(=O)N1CCN(CCCCN2c3ccccc3Sc3cc(N=[N+]=[N-])ccc32)CC1 | 16.8 µM (inactive) | 15.6 µM (inactive) | 15.6 µM (inactive) | 2.69 µM (inactive) | 17.3 µM (inactive) | 3.65 µM (inactive) | 8.65 µM (inactive) | 14.9 | 12.6 µM (inactive) | 15.7 µM (inactive) | 15.6 µM (inactive) | 15 µM (inactive) | 12.1 µM (inactive) | 15.4 µM (inactive) | 14.5 µM (inactive) | – | 18.2 µM (inactive) | 13.5 µM (inactive) | 14.9 µM (inactive)
4 | C[N+]1(CCC(=O)c2ccco2)CC2CCC(CC2)C1 (stereo not given) | > 100 µM (inactive) | > 100 µM (inactive) | > 100 µM (inactive) | > 100 µM (inactive) | > 100 µM (inactive) | > 100 µM (inactive) | > 100 µM (inactive) | > 100 | > 100 µM (inactive) | > 100 µM (inactive) | > 100 µM (inactive) | > 100 µM (inactive) | > 100 µM (inactive) | > 100 µM (inactive) | – | > 100 µM (inactive) | > 100 µM (inactive) | > 100 µM (inactive) | > 100 µM (inactive)
5 | COC(=O)c1c(C(=O)OC)c2c3ccccc3n(C)c2c2c1c1ccccc1n2C | 91.4 µM (inactive) | > 100 µM (inactive) | > 100 µM (inactive) | > 100 µM (inactive) | > 100 µM (inactive) | > 100 µM (inactive) | > 100 µM (inactive) | > 100 | > 100 µM (inactive) | > 100 µM (inactive) | 34.2 µM (inactive) | > 100 µM (inactive) | > 100 µM (inactive) | > 100 µM (inactive) | > 100 µM (inactive) | 74.5 µM (inactive) | – | > 100 µM (inactive) | > 100 µM (inactive)
6 | CC(C)[C@@H](C(=O)N1CCC[C@H]1C(=O)OCc1ccccc1)N(C)C(=O)[C@H](C(C)C)N(C)C(=O)[C@H](Cc1ccccc1)N(C)C(=O)[C@H](NC(=O)OC(C)(C)C)C(C)C (Boc-[dV][NMeF][NMeV][NMeV]P-OBn) | > 50 µM (inactive) | > 50 µM (inactive) | > 50 µM (inactive) | > 50 µM (inactive) | > 50 µM (inactive) | > 50 µM (inactive) | > 50 µM (inactive) | 17.3 | > 50 µM (inactive) | > 50 µM (inactive) | > 50 µM (inactive) | > 50 µM (inactive) | > 50 µM (inactive) | – | > 50 µM (inactive) | > 50 µM (inactive) | > 50 µM (inactive) | > 50 µM (inactive) | > 50 µM (inactive)
7 | N#Cc1ccc(C(O)C(F)(F)c2nc3ccccc3o2)cc1 (stereo not given) | 41.8 µM (inactive) | 44.8 µM (inactive) | – | 40.9 µM (inactive) | 71.4 µM (inactive) | 37.2 µM (inactive) | 18.2 µM (inactive) | > 100 | 60.5 µM (inactive) | > 100 µM (inactive) | 84.1 µM (inactive) | > 100 µM (inactive) | 31 µM (inactive) | 98.6 µM (inactive) | 45.5 µM (inactive) | 37.2 µM (inactive) | > 100 µM (inactive) | 96.2 µM (inactive) | 42.9 µM (inactive)
